Experiments:
[1] = target: T1, SIK2 (Homo sapiens, UniProt Q9H0K1); assay: SIK2 Enzymatic Assay High Version 2 (High ATP); format: biochemical
Method in brief: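 At room temperature, enzyme (6 nM, 2× final) was preincubated with compound for 30 min, then 6 mM ATP and 400 μM HDAC5tide (both 2× final) were added for 2 h. ADP formed was measured by ADP-Glo Max (2 h reagent, 1 h detection) using luminescence.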

[2] = target: T1, SIK2; assay: SIK2 Enzymatic Assay Version 1 (ADP Glo); format: biochemical; conditions: enzyme 0.6 nM, 160 μM ATP and 140 μM HDAC5tide (each 2× final concentration); 30 minutes pre-incubation, 4 hours; ADPGlo luminescence; read-out: SIK2 ADP Glo IC50 (μM) (Test Example 1)
Method in brief: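 Room-temperature ADP-Glo luminescence assay; SIK2 added at 0.6 nM (2× final) and preincubated with compound for 30 min. Reaction stopped with ADP-Glo Reagent for 40 min, then detection reagent for at least 30 min; no-peptide (ATP-only) wells served as negative control.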

T1 sequence (Q9H0K1 whole entry, species assumed): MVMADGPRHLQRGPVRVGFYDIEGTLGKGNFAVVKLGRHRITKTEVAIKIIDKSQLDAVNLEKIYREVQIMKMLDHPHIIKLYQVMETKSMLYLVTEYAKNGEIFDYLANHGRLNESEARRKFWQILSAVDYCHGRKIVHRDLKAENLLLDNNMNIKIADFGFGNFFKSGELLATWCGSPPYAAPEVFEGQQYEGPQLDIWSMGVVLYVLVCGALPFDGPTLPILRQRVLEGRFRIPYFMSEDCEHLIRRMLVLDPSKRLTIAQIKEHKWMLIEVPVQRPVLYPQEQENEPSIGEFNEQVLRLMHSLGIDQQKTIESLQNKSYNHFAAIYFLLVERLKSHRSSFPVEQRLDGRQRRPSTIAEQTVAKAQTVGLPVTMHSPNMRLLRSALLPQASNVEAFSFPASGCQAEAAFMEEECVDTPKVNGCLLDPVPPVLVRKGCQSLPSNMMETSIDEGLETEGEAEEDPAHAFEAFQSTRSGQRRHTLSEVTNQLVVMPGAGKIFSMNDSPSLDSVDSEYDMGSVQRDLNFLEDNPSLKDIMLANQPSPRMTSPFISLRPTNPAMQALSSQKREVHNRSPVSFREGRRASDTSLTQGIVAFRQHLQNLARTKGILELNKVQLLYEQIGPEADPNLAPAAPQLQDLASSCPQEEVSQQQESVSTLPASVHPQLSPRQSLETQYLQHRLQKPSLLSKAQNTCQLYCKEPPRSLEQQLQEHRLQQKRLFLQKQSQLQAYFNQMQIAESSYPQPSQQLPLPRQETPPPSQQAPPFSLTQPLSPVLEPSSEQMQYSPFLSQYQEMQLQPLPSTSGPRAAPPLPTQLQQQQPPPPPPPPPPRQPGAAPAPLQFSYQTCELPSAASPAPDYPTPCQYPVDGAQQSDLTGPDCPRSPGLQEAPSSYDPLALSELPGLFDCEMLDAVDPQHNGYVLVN

Compound | IC50 [1] | IC50 [2]
N#Cc1cc(-c2ccn3nc(NC(=O)C4CC4)cc3c2)c(OCC2CNC(=O)C2)cn1 (racemic) [Example 33, rac-N-(5-(2-cyano-5-((5-oxopyrrolidin-3-yl)methoxy)pyridin-4-yl)pyrazolo[1,5-a]pyridin-2-yl)cyclopropanecarboxamide] | 93.1 nM | 0.00416 µM
CN1C[C@@H]2C[C@H]1C[C@H]2Oc1cnc(C#N)cc1-c1ccn2nc(NC(=O)C3CC3)cc2c1 (single isomer, unassigned) [Example 595, (1*S, 4*S, 5*R)—N-[5-[2-cyano-5-[(2-methyl-2-azabicyclo[2.2.1]heptan-5-yl)oxy]-4-pyridyl]pyrazolo[1,5-a]pyridin-2-yl]cyclopropanecarboxamide] | 18 nM | 0.000791 µM
C[C@](O)(COc1cnc(C#N)cc1-c1ccn2nc(NC(=O)C3CC3)cc2c1)C(F)(F)F (single isomer, unassigned) [Example 50, (*S)—N-(5-(2-Cyano-5-(3,3,3-trifluoro-2-hydroxy-2-methylpropoxy)pyridin-4-yl)pyrazolo[1,5-a]pyridin-2-yl)cyclopropanecarboxamide] | 21.9 nM | 0.00111 µM
N#Cc1cc(-c2ccn3nc(NC(=O)C4CC4)cc3c2)c(OC[C@H]2C[C@H](N)C2)cn1 [Example 591, N-(5-(5-(((1r,3r)-3-aminocyclobutyl)methoxy)-2-cyanopyridin-4-yl)pyrazolo[1,5-a]pyridin-2-yl)cyclopropanecarboxamide] | 7.9 nM | 0.000647 µM
N#Cc1cc(-c2ccn3nc(NC(=O)C4CC4)cc3c2)c(OCC2CCC(O)(C(F)(F)F)CC2)cn1 (racemic) [Example 178, rac-N-[5-[2-cyano-5-[[4-hydroxy-4-(trifluoromethyl)cyclohexyl]methoxy]-4-pyridyl]pyrazolo[1,5-a]pyridin-2-yl]cyclopropanecarboxamide] | 12.9 nM | 0.000605 µM
Cc1cc(-c2ccn3nc(NC(=O)C4CC4)cc3c2)c(O[C@H]2C[C@](C)(N)C2)cn1 [Example 444, N-(5-(5-((1r,3r)-3-amino-3-methylcyclobutoxy)-2-methylpyridin-4-yl)pyrazolo[1,5-a]pyridin-2-yl)cyclopropanecarboxamide] | 1.63 nM | 0.000605 µM
N#Cc1cc(-c2ccn3nc(NC(=O)C4CC4)cc3c2)c(OC[C@@H]2CCN(C3CC3)C2)cn1 [Example 589, N-[5-[2-cyano-5-[[(3R)-1-cyclopropylpyrrolidin-3-yl]methoxy]-4-pyridyl]pyrazolo[1,5-a]pyridin-2-yl]cyclopropanecarboxamide] | 75.9 nM | 0.00625 µM
N#Cc1cc(-c2ccn3nc(NC(=O)C4CC4)cc3c2)c(O[C@@H]2C[C@@H]3C[C@H]2CN3)cn1 (single isomer, unassigned) [Example 17, N-[5-[5-[[(1*S,4*S,5*R)-2-azabicyclo[2.2.1]heptan-5-yl]oxy]-2-cyano-4-pyridyl]pyrazolo[1,5-a]pyridin-2-yl]cyclopropanecarboxamide] | 4.17 nM | 0.000402 µM
N#Cc1cc(-c2ccn3nc(NC(=O)C4CC4)cc3c2)c(O[C@@H]2CCN[C@H](C(F)(F)F)C2)cn1 (single isomer, unassigned) [Example 8, N-(5-(2-cyano-5-(((2*S,4*R)-2-(trifluoromethyl)piperidin-4-yl)oxy)pyridin-4-yl)pyrazolo[1,5-a]pyridin-2-yl)cyclopropanecarboxamide] | 7.51 nM | 0.000373 µM
N#Cc1cc(-c2ccn3nc(NC(=O)C4CC4)cc3c2)c(OC[C@@H](O)C(F)(F)F)cn1 [Example 96, N-[5-[2-cyano-5-[(2R)-3,3,3-trifluoro-2-hydroxy-propoxy]-4-pyridyl]pyrazolo[1,5-a]pyridin-2-yl]cyclopropanecarboxamide] | 16 nM | 0.000912 µM
CC(=O)N1CCC(Oc2cnc(C#N)cc2-c2ccn3nc(NC(=O)C4CC4)cc3c2)C1 (single isomer, unassigned) [Example 57, (*S)—N-(5-(5-((1-Acetylpyrrolidin-3-yl)oxy)-2-cyanopyridin-4-yl)pyrazolo[1,5-a]pyridin-2-yl)cyclopropanecarboxamide] | 264 nM | 0.0103 µM
